From patent US11655235B2, “Pyrrolidine and piperidine compounds” (YUHAN CORPORATION, priority 2019, dated 2023)

Assays:
[1] = target: T1, Recombinant human FAP (Homo sapiens, UniProt Q12884); assay: FAP inhibition, fluorogenic substrate Z-Gly-Pro-AMC; type: biochemical; conditions: for IC50: 25° C., Z-Gly-Pro-AMC substrate; for inhibition at 1 µM: read-out: hFAP inhibition % at 1 μM
T1 construct: purchased R&D systems
T1 sequence (Q12884 1-760): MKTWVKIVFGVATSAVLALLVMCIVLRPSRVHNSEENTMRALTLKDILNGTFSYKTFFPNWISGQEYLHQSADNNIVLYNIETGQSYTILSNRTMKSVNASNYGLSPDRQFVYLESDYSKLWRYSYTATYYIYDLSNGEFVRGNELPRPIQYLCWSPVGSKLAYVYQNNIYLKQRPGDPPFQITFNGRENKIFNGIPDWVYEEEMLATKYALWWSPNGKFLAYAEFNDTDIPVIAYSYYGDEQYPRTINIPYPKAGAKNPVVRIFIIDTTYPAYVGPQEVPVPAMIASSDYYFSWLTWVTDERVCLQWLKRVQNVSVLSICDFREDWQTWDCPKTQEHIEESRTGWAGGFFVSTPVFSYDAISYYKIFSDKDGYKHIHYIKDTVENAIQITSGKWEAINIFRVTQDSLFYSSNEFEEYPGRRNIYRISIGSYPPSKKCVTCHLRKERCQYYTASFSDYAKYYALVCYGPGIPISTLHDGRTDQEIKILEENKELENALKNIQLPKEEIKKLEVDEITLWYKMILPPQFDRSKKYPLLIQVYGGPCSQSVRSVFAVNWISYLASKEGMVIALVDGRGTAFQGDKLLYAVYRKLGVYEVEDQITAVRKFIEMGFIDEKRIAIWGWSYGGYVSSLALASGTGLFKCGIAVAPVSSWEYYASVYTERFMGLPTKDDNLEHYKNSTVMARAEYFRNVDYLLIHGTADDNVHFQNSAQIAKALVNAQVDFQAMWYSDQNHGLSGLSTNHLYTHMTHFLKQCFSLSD
Method: The compounds according to the present technology were evaluated in terms of the inhibitory effect on the activity of dipeptidyl peptidases including FAP by using a substrate producing fluorescent substances upon enzymatic decomposition. The test was conducted at 25° C. to get a final reaction volume of 100 μL in a 96 black well plate. […] Briefly, the test compounds were dissolved in dimethyl sulfoxide (DMSO) at a concentration of 20 mM and then subjected to serial dilution, thereby creating an 8 point curve. As for the control group, a 6 point curve created by serial dilution of Talabostat in the same buffer solution was used. Fluorescence intensity was measured using a microplate reader (Flexstation3, Molecular Devices) under the wavelength condition exciting at 380 nm and reading the emission at 460 nm. The inhibitory effect of the test compounds was measured as a decrease (%) in the signal rate as compared to the control group without any inhibitor. Data was fixed to a logistic model with four variables and IC50 value was calculated using GraphPad Prism program. Recombinant human FAP (R&D systems) was diluted with 50 mM tris (pH 7.5) buffer comprising 1 M of sodium chloride and 1 mg/ml of bovine serum albumin (BSA) to be 10 ng per final reaction. The test compounds were subjected to serial dilution in a buffer under the condition containing up to 0.1% of DMSO. Z-Gly-Pro-AMC (Bachem) was used as a substrate. By dissolving in DMSO and then diluting in the same buffer, the substrate was added to be […] per final reaction.

[2] = target: DPP4 (Homo sapiens, UniProt P27487); assay: DPP4 inhibition, fluorogenic substrate H-Gly-Pro-AMC; type: biochemical; set-up: purchased R&D Systems; conditions: for inhibition at 1 µM: read-out: hDPP4 inhibition % at 1 μM
Method: The compounds according to the present technology were evaluated in terms of the inhibitory effect on the activity of dipeptidyl peptidases including FAP by using a substrate producing fluorescent substances upon enzymatic decomposition. The test was conducted at 25° C. to get a final reaction volume of 100 μL in a 96 black well plate. […] Briefly, the test compounds were dissolved in dimethyl sulfoxide (DMSO) at a concentration of 20 mM and then subjected to serial dilution, thereby creating an 8 point curve. As for the control group, a 6 point curve created by serial dilution of Talabostat in the same buffer solution was used. Fluorescence intensity was measured using a microplate reader (Flexstation3, Molecular Devices) under the wavelength condition exciting at 380 nm and reading the emission at 460 nm. The inhibitory effect of the test compounds was measured as a decrease (%) in the signal rate as compared to the control group without any inhibitor. Data was fixed to a logistic model with four variables and IC50 value was calculated using GraphPad Prism program. As for recombinant human DPP4 (R&D Systems), 25 mM tris (pH 8.0) buffer as a buffer solution and H-Gly-Pro-AMC (Bachem) as a substrate were used. As for recombinant human DPP7 (R&D Systems), 25 mM MES (pH 6.0) buffer as a buffer solution and Lys-Pro-AMC (Bachem) as a substrate were used. As for recombinant human DPP8 (PBS Bioscience), as a buffer solution, a 10 mM tris (pH 7.4) buffer comprising 10 mM of magnesium chloride and 0.05% of Tween 20, and Z-Ala-Pro-AMC (BPS Bioscience) as a substrate were used. As for recombinant human DPP9 (R&D Systems), a 25 mM tris (pH 8.0) buffer as a buffer solution and H-Gly-Pro-AMC (Bachem) as a substrate were used. As for recombinant human PREP (R&D System), as a buffer solution, a 25 mM tris (pH 7.5) buffer comprising 250 mM sodium chloride and 2.5 mM DTT (Dithiolthreitol), and Z-Gly-Pro-AMC (Bachem) as a substrate were used. The evaluation was made by using 10 ng of DPP4, PDD7, and PREP, 20 ng of DPP8, and 50 ng of DPP9 based on the final reaction. In the evaluation of DPP4, the test compounds were subjected to serial dilution in a buffer under the condition containing up to 0.1% of DMSO. In the evaluation of DPP7, DPP8, DPP9, and PREP, the test compounds were subjected to serial dilution in each buffer under the condition containing up to 0.5% of DMSO.

Chain of DPP4 (P27487 whole entry): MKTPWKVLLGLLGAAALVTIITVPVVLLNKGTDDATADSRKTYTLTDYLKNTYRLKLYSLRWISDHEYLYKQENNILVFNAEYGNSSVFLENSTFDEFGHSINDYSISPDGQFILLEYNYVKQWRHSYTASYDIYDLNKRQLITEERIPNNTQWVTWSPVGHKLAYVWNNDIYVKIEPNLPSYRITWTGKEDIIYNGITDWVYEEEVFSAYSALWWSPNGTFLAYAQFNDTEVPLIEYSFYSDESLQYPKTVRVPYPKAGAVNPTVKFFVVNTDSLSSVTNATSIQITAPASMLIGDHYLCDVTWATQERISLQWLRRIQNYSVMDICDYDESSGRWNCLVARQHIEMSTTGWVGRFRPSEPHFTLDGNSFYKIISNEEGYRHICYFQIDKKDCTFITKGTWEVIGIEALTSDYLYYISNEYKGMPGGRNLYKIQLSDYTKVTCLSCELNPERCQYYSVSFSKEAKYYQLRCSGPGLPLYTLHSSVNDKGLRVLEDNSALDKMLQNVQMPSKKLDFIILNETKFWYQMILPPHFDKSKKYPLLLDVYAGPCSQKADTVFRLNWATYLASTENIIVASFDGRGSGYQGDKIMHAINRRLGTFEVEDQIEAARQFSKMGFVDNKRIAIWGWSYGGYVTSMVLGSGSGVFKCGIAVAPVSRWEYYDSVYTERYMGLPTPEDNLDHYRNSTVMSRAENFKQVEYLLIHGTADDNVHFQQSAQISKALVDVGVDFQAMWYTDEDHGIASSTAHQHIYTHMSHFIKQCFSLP

Row | Structure (SMILES) | IC50 [1] [nM] | inhibition at 1 µM [2] [%] | hDPP4 inhibition % at 1 μM [2] | inhibition at 1 µM [1] [%]
1 | N#C[C@@H]1CCCN1C(=O)CN1CC[C@@H](C(=O)Nc2ccnc3ccccc23)C1 [Example 2, (R)-1-(2-((S)-2-cyanopyrrolidin-1-yl)-2-oxoethyl)-N-(quinolin-4-yl)pyrrolidine-3-carboxamide] | 84.5 | 14.6 |  | 
2 | N#C[C@@H]1CCCN1C(=O)CN1CC[C@H](C(=O)Nc2cnc3ccccc3c2)C1 [Example 3, (S)-1-(2-((S)-2-cyanopyrrolidin-1-yl)-2-oxoethyl)-N-(quinolin-3-yl)pyrrolidine-3-carboxamide] | 175 | 4.2 |  | 
3 | N#C[C@@H]1CCCN1C(=O)CN1CC[C@H](C(=O)Nc2ccnc3ccccc23)C1 [Example 4, (S)-1-(2-((S)-2-cyanopyrrolidin-1-yl)-2-oxoethyl)-N-(quinolin-4-yl)pyrrolidine-3-carboxamide] | 99.2 | 15.1 |  | 
4 | N#C[C@@H]1CCCN1C(=O)CN1CC[C@@H](Nc2cccc(-c3ccccc3)c2)C1 [Example 18, (S)-1-(2-((R)-3-([1,1′-biphenyl]-3-ylamino)pyrrolidin-1-yl)acetyl)pyrrolidine-2-carbonitrile] | 25.3 |  | No inhibition** | 
5 | N#C[C@@H]1C[C@@H]2C[C@@H]2N1C(=O)CN1CC[C@H](Nc2cncc3ccoc23)C1 [Example 26, (1S,3S,5S)-2-(2-((S)-3-(furo[3,2-c]pyridin-7-ylamino)pyrrolidin-1-yl)acetyl)-2-azabicyclo[3.1.0]hexane-3-carbonitrile] |  | 0.4 |  | 93.7
6 | N#C[C@@H]1CCCN1C(=O)CN1CC[C@H](NC(=O)c2cnc3ccccc3c2)C1 [Example 31, N—((S)-1-(2-((S)-2-cyanopyrrolidin-1-yl)-2-oxoethyl)pyrrolidin-3-yl)quinoline-3-carboxamide] | 164 | 5.4 |  | 
7 | N#C[C@@H]1CCCN1C(=O)CN1CC[C@H](NC(=O)c2ccc3ccccc3n2)C1 [Example 33, N—((S)-1-(2-((S)-2-cyanopyrrolidin-1-yl)-2-oxoethyl)pyrrolidin-3-yl)quinoline-2-carboxamide] |  |  | No inhibition** | 66.1
8 | N#C[C@@H]1CCCN1C(=O)CN1CC[C@H](NC(=O)Cc2cccc3ccccc23)C1 [Example 38, N—((S)-1-(2-((S)-2-cyanopyrrolidin-1-yl)-2-oxoethyl)pyrrolidin-3-yl)-2-(naphthalen-1-yl)acetamide] | 170 |  | No inhibition** | 
9 | N#C[C@@H]1CCCN1C(=O)CN1CC[C@H](NC(=O)c2ccccc2-c2ccccc2)C1 [Example 39, N—((S)-1-(2-((S)-2-cyanopyrrolidin-1-yl)-2-oxoethyl)pyrrolidin-3-yl)-[1,1′-biphenyl]-2-carboxamide] |  | 0.4 |  | 68.1
10 | N#C[C@@H]1CCCN1C(=O)CN1CC[C@H](NC(=O)c2cc3ccccc3o2)C1 [Example 40, N—((S)-1-(2-((S)-2-cyanopyrrolidin-1-yl)-2-oxoethyl)pyrrolidin-3-yl)benzofuran-2-carboxamide] | 38.3 | 3.2 |  | 
11 | Cc1oc2ccccc2c1C(=O)N[C@H]1CCN(CC(=O)N2CCC[C@H]2C#N)C1 [Example 42, N—((S)-1-(2-((S)-2-cyanopyrrolidin-1-yl)-2-oxoethyl)pyrrolidin-3-yl)-2-methylbenzofuran-3-carboxamide] |  | 1.4 |  | 84.6
12 | Cc1cccc2c(C(=O)N[C@H]3CCN(CC(=O)N4CCC[C@H]4C#N)C3)coc12 [Example 45, N—((S)-1-(2-((S)-2-cyanopyrrolidin-1-yl)-2-oxoethyl)pyrrolidin-3-yl)-7-methylbenzofuran-3-carboxamide] | 30.1 | 1.2 |  | 

The remaining lines, values ahead:

Row | IC50 [1] [nM] | inhibition at 1 µM [2] [%] | hDPP4 inhibition % at 1 μM [2] | inhibition at 1 µM [1] [%] | Structure (SMILES)
13 | 163 | 4.4 |  |  | N#C[C@@H]1CCCN1C(=O)CN1CC[C@@H](C(=O)Nc2cnc3ccccc3c2)C1 [Example 1, (R)-1-(2-((S)-2-cyanopyrrolidin-1-yl)-2-oxoethyl)-N-(quinolin-3-yl)pyrrolidine-3-carboxamide]
14 | 34.1 | 3.6 |  |  | N#C[C@@H]1CCCN1C(=O)CN1CC[C@H](Nc2cccc3ccsc23)C1 [Example 21, (S)-1-(2-((S)-3-(benzo[b]thiophen-7-ylamino)pyrrolidin-1-yl)acetyl)pyrrolidine-2-carbonitrile]
15 | 9.03 | 4.2 |  |  | N#C[C@@H]1CCCN1C(=O)CN1CC[C@H](Nc2cccc3ccoc23)C1 [Example 22, (S)-1-(2-((S)-3-(benzofuran-7-ylamino)pyrrolidin-1-yl)acetyl)pyrrolidine-2-carbonitrile]
16 | 57.6 | 2.9 |  |  | N#C[C@@H]1CCCN1C(=O)CN1CC[C@@H](Nc2cccc3ccsc23)C1 [Example 25, (S)-1-(2-((R)-3-(benzo[b]thiophen-7-ylamino)pyrrolidin-1-yl)acetyl)pyrrolidine-2-carbonitrile]
17 | 145 |  | No inhibition** |  | N#C[C@@H]1CCCN1C(=O)CN1CC[C@H](NC(=O)c2ccnc3ccccc23)C1 [Example 30, N—((S)-1-(2-((S)-2-cyanopyrrolidin-1-yl)-2-oxoethyl)pyrrolidin-3-yl)quinoline-4-carboxamide]
18 | 70.4 | 2 |  |  | N#C[C@@H]1CCCN1C(=O)CN1CC[C@H](NC(=O)c2cccc3ncccc23)C1 [Example 32, N—((S)-1-(2-((S)-2-cyanopyrrolidin-1-yl)-2-oxoethyl)pyrrolidin-3-yl)quinoline-5-carboxamide]
19 | 191 |  | No inhibition** |  | N#C[C@@H]1CCCN1C(=O)CN1CC[C@H](NC(=O)c2cccc3cccnc23)C1 [Example 34, N—((S)-1-(2-((S)-2-cyanopyrrolidin-1-yl)-2-oxoethyl)pyrrolidin-3-yl)quinoline-8-carboxamide]
20 |  |  | No inhibition** | 76.1 | N#C[C@@H]1CCCN1C(=O)CN1CC[C@H](NC(=O)c2nccc3ccccc23)C1 [Example 35, N—((S)-1-(2-((S)-2-cyanopyrrolidin-1-yl)-2-oxoethyl)pyrrolidin-3-yl)isoquinoline-1-carboxamide]
